These results are taken from patent US20260272924A1, “ISOINDOLINE DERIVATIVE, BENZOINDOLE DERIVATIVE AND USE THEREOF” (SHANGHAI HELIOSON PHARMACEUTICAL CO., LTD., priority 2023, published 2026).

For one data set, the target named is T1, CRBN (Homo sapiens, UniProt Q96SW2).
T1 construct: purchased Cisbio 64BDCRBNPEG
The experiment in a line: CRBN binding assay (HTRF competition). An excerpt: Bonding activity between CRBN and compounds were detected by the HTRF competition assay using a CRBN binding kit (Cisbio, 64BDCRBNPEG). First, a reagent in the kit was equilibrated to room temperature and diluted to 1 fold with double-distilled water, and both the reagent and samples were uniformly mixed by thorough vortexing for later use. An europium-labeled specific GST antibody and an XL665-labeled thalidomide-red reagent (Cisbio, Cat No. 64BDCRBNPEG) were mixed in equal volumes in advance and then added into a 384-well white microplate at 10 μL per well. […] After uniform mixing, contents in the 384-well plate were sealed and incubated in the dark at room temperature for 3 hours.

The conditions of data set [1]: clinical phase I trial, combined with dexamethasone, RRMM patients; cited from earlier work.
Data set [2] relates to NCI-H929 multiple myeloma cells. The experiment in a line: Cell Titer-GLO (CTG) assay for proliferation of NCI-H929 cells. Format: cell-based. The settings on record: Homo sapiens, 72 hours. In short, it runs like this:
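NCI-H929 cells, 5000/well, treated next day with compound from 0.00512 to 400 nM (5-fold steps, duplicates) for 72 h at 37° C. Viability by CellTiter-Glo luminescence, normalised to 0.1% DMSO and medium blank; IC50 and maximal inhibition from nonlinear dose-response regression.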
For orientation: ATP-based viability assays read luminescence as a measure of living cells.

The target of the next data set is T2, IKZF1 (Homo sapiens, UniProt Q13422+Q96SW2).
T2 construct: NCI-H929 cells were inoculated into a 96-well plate at 100,000 cells per well and cultured overnight; endogenous in cells; host or cells: NCI-H929
Nature of the data set: Protein degradation assay (In-Cell Western), IKZF1. Format: cell-based. The settings on record: NCI-H929 cells, 24 hours. As to the method:
(§1) NCI-H929 cells were inoculated into a 96-well plate at 100,000 cells per well and cultured overnight. Compounds at concentrations of 1600 nM, 400 nM, 100 nM, 25 nM, 6.25 nM, 1.56 nM, 0.39 nM, and 0.1 nM were dosed with duplicate wells, and the cells were incubated in an incubator at 37° C. for 24 hours. After the incubation, the supernatant was removed by centrifugation, and 150 μL of 4% paraformaldehyde was added. The cells were incubated at room temperature for 20 minutes, then, 200 μL of a washing solution (0.1% TritonX-100, Beyotime; ST1722) was added and incubated at room temperature on a shaker. After repeating the washing four times, 150 μL of a Licor INTERCEPT blocking solution (Lico, Cat No. 927-70001) was added, and the cells were incubated on a shaker at room temperature for 1.5 hours. Antibodies IKZF1 (Cell Signaling; Cat No. 14859S), IKZF3 (Cell Signaling; Cat No. 15103S), GSPT1 (Proteintech, Cat No. 10763-1-AP), CK1a (Thermo; 7117067), and SALL4 (Abcam, ab22675) were diluted with an antibody dilution solution (Intercept Blocking Buffer, LI-COR, 211114) at 1:100 and 50 μL of each diluted primary antibody was added into the 96-well plate. The cells were incubated overnight on a shaker at 4° C. After the primary antibodies were removed and repeated washing was performed with PBST for 4 times, 50 μL of a diluted secondary antibody (Licor, Cat No. 926-68070) was added, and IRDye 800CW and IRDye 680CW were added at 0.5 μL simultaneously. The secondary antibody was sucked away, PBST was added, repeated washing was performed on a shaker at room temperature for 4 times, and a signal intensity was detected using an infrared laser imaging system (Lico, Odyssey-CLx).

The target of another data set is T3, IKZF3 (Homo sapiens, UniProt Q96SW2+Q9UKT9).
T3 construct: endogenous in cells; host or cells: NCI-H929
Nature of the data set: Protein degradation assay (In-Cell Western), IKZF3. It is filed as cell-based. As to conditions: NCI-H929 cells, 24 hours. As to the method: as §1

The conditions of data set [3]: patients, literature; cited from earlier work.
[4] abbreviates: GST-labeled CRBN WT protein, thalidomide-red competition, 3 hours, read-out: HTRF CRBN IC50.

Where two headings read alike, the source gives them in different places.

Compound `N#Cc1ccc(N2CCN(Cc3ccc(COc4cccc5c4CN([C@H]4CCC(=O)NC4=O)C5=O)cc3)CC2)c(F)c1` [CC-92480, reference compound] returned an IC50 at CRBN of 108 nM. Besides, the “objective response rate (ORR)” value in data set [1] is listed as 54.4%.
Regarding `Cc1ncc(-c2nc(N3CCN(Cc4ccc(Cc5ccc6c7c(cccc57)C(=O)N6C5CCC(=O)NC5=O)cc4)CC3)cc(C(F)(F)F)n2)s1` (stereo not drawn) [Example 21, 3-(6-(4-((4-(2-(2-methylthiazol-5-yl)-6-(trifluoromethyl)pyrimidin-4-yl)piperazin-1-yl)methyl)benzyl)-2-oxobenzo[cd]indol-1(2H)-yl)piperidin-2,6-dione], the IC50 in data set [2] amounted to 0.2 nM; at CRBN (setting [4]), 34 nM. Also, the DC50 on IKZF1 was 8.86 nM; on IKZF3, 0.22 nM. The Dmax at IKZF1 came out at 57.1%; at IKZF3 it was 74.1%.
As for `Cc1nnc(-c2cccc(N3CCN(Cc4ccc(Cc5ccc6c7c(cccc57)C(=O)N6C5CCC(=O)NC5=O)cc4)CC3)n2)s1` (stereo not drawn) [Example 22, 3-(6-(4-((4-(6-(5-methyl-1,3,4-thiadiazol-2-yl)pyridin-2-yl)piperazin-1-vA)methyl)benzyl)-2-oxobenzo[cd]indol-1(2H)-yl)piperidin-2,6-dione], the IC50 amounted to 0.02 nM in data set [2] and 20 nM at CRBN (setting [4]). The DC50 at IKZF1 is 0.1 nM; at IKZF3, 0.056 nM. For the same compound, the Dmax came to 65.3% on IKZF1 and 76.4% at IKZF3.
In the case of `Cc1ncn(-c2cccc(N3CCN(Cc4ccc(Cc5ccc6c7c(cccc57)C(=O)N6C5CCC(=O)NC5=O)cc4)CC3)n2)n1` (stereo not drawn) [Example 23, 3-(6-(4-((4-(6-(3-methyl-1H-1,2,4-triazol-1-yl)pyridin-2-yl)piperazin-1-yl)methyl)benzyl)-2-oxobenzo[cd]indol-1(2H)-yl)piperidin-2,6-dione], the IC50 in data set [2] was found to be 0.01 nM; at CRBN (setting [4]), 19 nM. Further, the DC50 on IKZF1 was 0.077 nM; on IKZF3 it was 0.036 nM. The Dmax was 65.8% on IKZF1 and 77.1% at IKZF3.
For `O=C1CCC(N2C(=O)c3cccc4c(Cc5ccc(CN6CCN(c7ccnc(-n8cnc(C(F)(F)F)c8)n7)CC6)cc5)ccc2c34)C(=O)N1` (stereo not drawn) [Example 25, 3-(2-oxo-6-(4-((4-(2-(4-(trifluoromethyl)-1H-imidazol-1-yl)pyrimidin-4-yl)piperazin-1-yl)methyl)benzyl)benzo[cd]indol-1(2H)-yl)piperidin-2,6-dione], the IC50 in data set [2] was found to be 0.04 nM; at CRBN (setting [4]), 38 nM. Moreover, the DC50 at IKZF1 was 0.98 nM; at IKZF3, 0.075 nM. For the same compound, the Dmax on IKZF1 amounted to 60%; at IKZF3, 76.2%.
As for `Cc1nc(N2CCN(Cc3ccc(Cc4ccc5c6c(cccc46)C(=O)N5[C@H]4CCC(=O)NC4=O)cc3)CC2)cc(-n2cnc(C(F)(F)F)c2)n1` [Example 30, (S)-3-(6-(4-((4-(2-methyl-6-(4-(trifluoromethyl)-1H-imidazol-1-yl)pyrimidin-4-yl)piperazin-1-yl)methyl)benzyl)-2-oxobenzo[cd]indol-1(2H)-yl)piperidin-2,6-dione], the IC50 was 0.01 nM in data set [2] and 27 nM at CRBN (setting [4]). The DC50 on IKZF1 turned out to be 0.37 nM; on IKZF3 it was 0.093 nM. Moreover, the Dmax at IKZF1 stood at 74.1%; at IKZF3 it was 73.2%.
As for `Cc1ncn(-c2cccc(N3CCN(Cc4ccc(Cc5ccc6c7c(cccc57)C(=O)N6[C@H]5CCC(=O)NC5=O)cc4)CC3)n2)n1` [Example 37, (S)-3-(6-(4-((4-(6-(3-methyl-1H-1,2,4-triazol-1-yl)pyridin-2-yl)piperazin-1-yl)methyl)benzyl)-2-oxobenzo[cd]indol-1(2H)-yl)piperidin-2,6-dione], the IC50 in data set [2] came out at 0.01 nM; at CRBN (setting [4]), 8 nM.
Take `Nc1cccc2c1CN(C1CCC(=O)NC1=O)C2=O` (stereo not drawn) [lenalidomide]: the “incidence rate of G3/G4 neutropenia” value in data set [3] is on record as “up to 35%”.
`Nc1cccc2c1C(=O)N(C1CCC(=O)NC1=O)C2=O` (stereo not drawn) [pomalidomide]: the “incidence rate of G3/G4 neutropenia” value in data set [3] is “approximately 50%”.

What is called IC50 is the point on the concentration scale where inhibition reaches its midpoint. As a reminder, the DC50 is the midpoint of the concentration-degradation curve. Read a high DC50 as a less potent degrader. One may read the Dmax as the greatest extent of degradation seen.
